Like-named read-outs stand apart in the source and are kept apart here. Where only a bound is given, the exact number is not on record here.

Here are results for 25 compounds from paper PMC9246766 (Pharmaceutical research, 2022).

Data set [1] concerns the target T1, OCT3 (Homo sapiens, UniProt O75751).
T1 sequence (O75751 1-556): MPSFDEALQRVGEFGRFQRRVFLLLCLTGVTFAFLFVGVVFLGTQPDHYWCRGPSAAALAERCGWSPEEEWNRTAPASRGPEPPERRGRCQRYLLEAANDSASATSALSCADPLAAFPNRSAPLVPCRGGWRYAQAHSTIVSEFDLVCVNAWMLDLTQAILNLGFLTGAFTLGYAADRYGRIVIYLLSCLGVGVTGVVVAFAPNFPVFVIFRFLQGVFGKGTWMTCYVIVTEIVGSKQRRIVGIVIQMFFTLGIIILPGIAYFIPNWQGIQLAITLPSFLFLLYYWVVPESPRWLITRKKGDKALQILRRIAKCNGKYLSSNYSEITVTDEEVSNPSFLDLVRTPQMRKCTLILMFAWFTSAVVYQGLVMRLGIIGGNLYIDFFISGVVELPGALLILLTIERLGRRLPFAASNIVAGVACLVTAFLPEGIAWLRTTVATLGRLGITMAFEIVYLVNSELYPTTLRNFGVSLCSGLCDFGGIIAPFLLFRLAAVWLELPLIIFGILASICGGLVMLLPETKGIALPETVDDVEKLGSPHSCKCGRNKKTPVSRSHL
Nature of the data set: IC50 determination against OCT3-mediated ASP+ uptake in HEK-293 cells overexpressing OCT3. The class given is cell-based.

The target of data set [2] is T1, OCT3. Nature of the data set: IC50 determination against OCT3-mediated [14C]metformin uptake in HEK-293 cells overexpressing OCT3. The data set is classed as cell-based.
For data set [3], the target named is T1, OCT3. Description: High throughput screen: inhibition of OCT3-mediated ASP+ uptake in HEK-293 cells stably expressing OCT3. To be noted: for inhibition at 20 µM: HEK293. The class given is cell-based.
For data set [4] the following is noted: total maximum plasma concentration; ref http://www.micromedexsolutions.com/; cited from earlier work.
The conditions of data set [5]: plasma protein binding used for unbound CMAX; source not given; cited from earlier work.
The conditions of data set [6]: cited from earlier work; for FDA product insert: warnings, precautions and major adverse reactions: cardiovascular / CNS related, ref FDA product insert; for Neurological side effects: stated in discussion, ref Table SII, 60; for Neurological Effects (from Literature): ref Pubmed ID of Table SII.

In general, IC50 refers to the point on the concentration scale where inhibition reaches its midpoint. With `N=C(N)NC(=O)c1nc(Cl)c(N)nc1N` [amiloride], the IC50 on OCT3 [1] was 14.5 µM; on OCT3 [2], 3000 nM.

As usually defined, the inhibition is how much of the control response was suppressed. One may read the Cmax as the maximum level reached in the sampled fluid or tissue. Turning to `C[C@H]1[C@H](NC(=O)/C(=N\OC(C)(C)C(=O)O)c2csc(N)n2)C(=O)N1S(=O)(=O)O` [aztreonam], at OCT3 [3], the IC50 is < 5 µM and 20 µM produced 87.1% inhibition. Besides, the Cmax in data set [4] is 585000 nM. Further, the Protein binding in data set [5] is given as 56%. Moreover, in data set [6], the “FDA product insert: warnings, precautions and major adverse reactions” value (“FDA product insert: warnings” for short) was “warnings and precautions related to cardiovascular side-effects”; the Neurological side effects entry is recorded as “neurological side effects”. For the same compound, the “FDA product insert: warnings” value in data set [6] (listed as Aztreonam) is “Adverse reaction: Cardiovascular—hypotension, transient ECG changes (ventricular bigeminy and PVC), flushing. Nervous System—seizure, confusion, vertigo, paresthesia, insomnia, dizziness”.

With `COc1ccccc1OCCNCC(O)COc1cccc2[nH]c3ccccc3c12` (stereo not drawn) [carvedilol], at OCT3 [1], the IC50 is 19.7 µM.

For `[H]/N=C(\N/C(=N/[H])NCCCCCCNC(=N)NC(=N)Nc1ccc(Cl)cc1)Nc1ccc(Cl)cc1` [chlorhexidine], the IC50 against OCT3 [1] is 3.7 µM; against OCT3 [2] it was 400 nM.

In the case of `O=C1CCc2cc(OCCCCc3nnnn3C3CCCCC3)ccc2N1` [cilostazol], at OCT3 [3], the IC50 is < 5 µM and at 20 µM the inhibition was 93.8%. In addition, the peak concentration (Cmax) in data set [4] was 2100 nM. In addition, the Protein binding in data set [5] was 95%. Besides, in data set [6], the “Neurological Effects (from Literature)” value is reported as “Cilostazol attenuated blood–brain barrier leakage, Cilostazol (CSZ) was recently found to suppress the progression of cognitive decline in patients with stable AD receiving acetylcholinesterase inhibitors”.

For `CNCCCN1c2ccccc2CCc2ccccc21` [desipramine], the midpoint of inhibition against OCT3 [1], the IC50, lay at 177 µM. Besides, the inhibition at 20 µM on OCT3 [1] (HEK293, read-out: Inhibition of OCT3 activity at 20 μM) is < 50%.

For `COc1cc2nc(N3CCN(C(=O)C4COc5ccccc5O4)CC3)nc(N)c2cc1OC` (stereo not drawn) [doxazosin], half-maximal inhibition against OCT3 [1] (IC50) was put at 5.6 µM.

In the case of `CC[C@H]1CN2CCc3cc(OC)c(OC)cc3[C@@H]2C[C@@H]1C[C@H]1NCCc2cc(OC)c(OC)cc21` [emetine], at OCT3 [3], the IC50 was < 5 µM and 20 µM produced 82.7% inhibition. Also, the Cmax in data set [4] is 600 nM. The Protein binding in data set [5] is given as 90%.

As to `C=C1C[C@@H]2[C@H](CC[C@]3(C)C(=O)CC[C@@H]23)[C@@]2(C)C=CC(=O)C=C12` [exemestane], at OCT3 [3], the IC50 is < 5 µM and the inhibition at 20 µM came to 94.5%. Besides, the Cmax in data set [4] is 1400 nM. In addition, the Protein binding in data set [5] is 90%. For the same compound, the “FDA product insert: warnings” value in data set [6] is “No warnings and precautions regarding to cardiovascular, CNS”.

Take `CCC1=C(C)CN(C(=O)NCCc2ccc(S(=O)(=O)NC(=O)N[C@H]3CC[C@H](C)CC3)cc2)C1=O` [glimepiride]: on OCT3 [3], the IC50 was < 5 µM and at 20 µM the inhibition was 87.7%. In data set [4], the Cmax is 1200 nM. For the same compound, the Protein binding in data set [5] is 99%. The “FDA product insert: warnings” value in data set [6] was “No warnings and precautions regarding to cardiovascular, CNS. However, oral hypoglycemic reagents are known to increase cardiovascular mortality which may be due to hypoglycemia incidence”.

Turning to `N=C(N)N/N=C/c1c(Cl)cccc1Cl` [guanabenz], the concentration for half-maximal inhibition (IC50) came out at 3.2 µM on OCT3 [1] and 1100 nM against OCT3 [2].

On to `Cc1ccc(NC(=O)c2ccc(CN3CCN(C)CC3)cc2)cc1Nc1nccc(-c2cccnc2)n1` [imatinib], for which the Cmax in data set [4] was 1200 nM.

Regarding `CC(=O)N1CCN(c2ccc(OCC3COC(Cn4ccnc4)(c4ccc(Cl)cc4Cl)O3)cc2)CC1` (stereo not drawn) [ketoconazole], on OCT3 [3], the IC50 was < 5 µM and testing at 20 µM gave an inhibition of 93.4%. The compound further displayed a half-inhibitory concentration (IC50) on OCT3 [1] of 0.42 µM. Also, the peak concentration (Cmax) in data set [4] is 1900 nM. Also, the Protein binding in data set [5] is 91%.

Take `Cc1c(OCC(F)(F)F)ccnc1C[S+]([O-])c1nc2ccccc2[nH]1` (stereo not drawn) [lansoprazole]: at OCT3 [3], the concentration for half-maximal inhibition (IC50) is < 5 µM and the inhibition at 20 µM worked out at 87.2%. Moreover, the Cmax in data set [4] is 2900 nM. Besides, the Protein binding in data set [5] was 97%. In data set [6], the “FDA product insert: warnings” value was “No warnings and precautions regarding to cardiovascular, CNS”; the “Neurological Effects (from Literature)” value was “Increase the risk of dementia”.

For the compound `Cc1oncc1C(=O)Nc1ccc(C(F)(F)F)cc1` [leflunomide], on OCT3 [3], the half-inhibitory concentration (IC50) amounted to 19.6 µM and 20 µM produced 50.5% inhibition. Also, the Cmax in data set [4] was 233000 nM. Further, the Protein binding in data set [5] is 99.3%. Besides, in data set [6], the “FDA product insert: warnings” value was “No warnings and precautions regarding to cardiovascular, CNS”.

At OCT3 [3], `COc1ccc2[nH]c([S+]([O-])Cc3ncc(C)c(OC)c3C)nc2c1` (stereo not drawn) [omeprazole] came in with a concentration for half-maximal inhibition (IC50) of 11.2 µM and an inhibition at 20 µM of 64.1%. Moreover, the Cmax in data set [4] was 4200 nM. In data set [5], the Protein binding was 95%. Besides, in data set [6], the “FDA product insert: warnings” value was “No warnings and precautions regarding to cardiovascular, CNS”; the “Neurological Effects (from Literature)” value is reported as “Increase the risk of dementia”.

With `COc1ccc(Cc2nccc3cc(OC)c(OC)cc23)cc1OC` [papaverine], the figures for the 50% inhibitory concentration (IC50) on OCT3 [1] and on OCT3 [2] were 4.1 µM and 1200 nM, respectively.

For `C[C@]12C=CC(=O)C=C1CC[C@@H]1[C@@H]2[C@@H](O)C[C@@]2(C)[C@H]1CC[C@]2(O)C(=O)CO` [prednisolone], at OCT3 [3], inhibition was half-maximal at 9.6 µM (IC50) and 20 µM produced 67.5% inhibition. In addition, the Cmax in data set [4] is 2900 nM. In addition, the Protein binding in data set [5] is recorded as 70%. The “Neurological Effects (from Literature)” value in data set [6] is listed as “Behavirol effects”.

As for `CCCNCC(O)COc1ccccc1C(=O)CCc1ccccc1` (stereo not drawn) [propafenone], on OCT3 [3], the IC50 was determined as 7 µM and the inhibition at 20 µM worked out at 74%. This compound had an IC50 against OCT3 [1] of 2.4 µM.

Turning to `C=C[C@H]1C[N@@]2CC[C@H]1C[C@H]2[C@H](O)c1ccnc2ccc(OC)cc12` [quinine], the half-inhibitory concentration (IC50) was < 5 µM on OCT3 [3] and 6.6 µM against OCT3 [1]. At OCT3 [3], this compound came in with an inhibition at 20 µM of 90.6%. In addition, the “FDA product insert: warnings” value is “warnings and precautions related to cardiovascular side-effects” in data set [6]; “Warnings and precautions: QT prolongation and ventricular arrhythmias. Avoid concomitant use with drugs known to prolong QT interval” in data set [6] (listed as Quinine).

Turning to `COCCCOc1ccnc(C[S+]([O-])c2nc3ccccc3[nH]2)c1C` (stereo not drawn) [rabeprazole], on OCT3 [3], the 50% inhibitory concentration (IC50) was < 5 µM and the inhibition at 20 µM was determined as 87.3%. In data set [4], the Cmax is 1300 nM. The Protein binding in data set [5] is 96%. The “FDA product insert: warnings” value in data set [6] is “No warnings and precautions regarding to cardiovascular, CNS”.

As for `CC(=O)S[C@@H]1CC2=CC(=O)CC[C@]2(C)[C@H]2CC[C@@]3(C)[C@@H](CC[C@@]34CCC(=O)O4)[C@H]12` [spironolactone], on OCT3 [3], the IC50 was < 5 µM and the inhibition at 20 µM worked out at 82.8%. The Cmax in data set [4] was 1100 nM. Also, the Protein binding in data set [5] is 93%. In data set [6], the “FDA product insert: warnings” value is “No warnings and precautions regarding to cardiovascular, CNS”; the “Neurological Effects (from Literature)” value is “Neurotoxicity, lipophilic and cross the blood brain barrier”.

Consider `CCCc1nc2c(C)cc(-c3nc4ccccc4n3C)cc2n1Cc1ccc(-c2ccccc2C(=O)O)cc1` [telmisartan], for which at 20 µM the inhibition against OCT3 [3] was 81.6%. Besides, the IC50 against OCT3 [1] stood at 12 µM. At OCT3 [2], this compound displayed a concentration for half-maximal inhibition (IC50) of 3900 nM. Moreover, the Cmax in data set [4] was 2800 nM. Besides, in data set [5], the Protein binding is 99.5%. In data set [6], the “FDA product insert: warnings” value is “No warnings and precautions regarding to cardiovascular, CNS”; the “Neurological Effects (from Literature)” value is on record as “Neuroprotective effect, across bbb”.

As to `COc1cc(Cc2cnc(N)nc2N)cc(OC)c1OC` [trimethoprim], the Cmax in data set [4] is 5900 nM. For the same compound, in data set [6], the “FDA product insert: warnings” value is “warnings and precautions related to cardiovascular side-effects”; the “Neurological Effects (from Literature)” value is “Trimethoprim/sulfamethaxazole (TMP-SMX) has been reported to be associated with encephalopathy and psychosis”; the Neurological side effects entry is “neurological side effects”. Moreover, the “FDA product insert: warnings” value in data set [6] (listed as Trimethoprim) is “Post marketing experience: QT prolongation resulting in ventricular tachycardia and torsade de pointes”.

Regarding `Cc1onc(-c2ccccc2)c1-c1ccc(S(N)(=O)=O)cc1` [valdecoxib], on OCT3 [3], half-maximal inhibition (IC50) was put at 17.3 µM and the inhibition at 20 µM was 53.6%. Moreover, the peak concentration (Cmax) in data set [4] is 2200 nM. Besides, the Protein binding in data set [5] is reported as 98%. Besides, the “Neurological Effects (from Literature)” value in data set [6] was “Neuroprotective effect, across bbb”.
